Where a name gives a salt, the structure may show the parent alone.
Key:
[1] = molecular target: T1, Recombinant Human Hexosaminidase B (HexB) (Homo sapiens, UniProt P07686); assay: Inhibition assay against rhHexB, 4-methylumbelliferone N-acetyl-β-D-galactosaminide fluorescence; type: biochemical; conditions: 5 nM HexB, 150 μM substrate, pH 5.5; NI = no inhibition detected at 200 μM; read-out: hHexB
T1 construct: purchased R&D Systems 8907-GH-020
T1 sequence (P07686 122-556): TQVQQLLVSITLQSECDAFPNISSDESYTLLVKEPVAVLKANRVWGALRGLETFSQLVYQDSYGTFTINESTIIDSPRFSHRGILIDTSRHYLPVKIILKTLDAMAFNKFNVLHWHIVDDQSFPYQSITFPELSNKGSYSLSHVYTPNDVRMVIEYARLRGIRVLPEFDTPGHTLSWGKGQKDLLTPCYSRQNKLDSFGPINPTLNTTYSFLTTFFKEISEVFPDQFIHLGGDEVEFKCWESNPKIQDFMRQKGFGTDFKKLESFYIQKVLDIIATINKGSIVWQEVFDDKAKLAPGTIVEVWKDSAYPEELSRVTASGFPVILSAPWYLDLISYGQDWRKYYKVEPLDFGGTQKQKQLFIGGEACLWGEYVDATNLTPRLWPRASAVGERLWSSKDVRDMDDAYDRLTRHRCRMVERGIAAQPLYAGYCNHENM
Procedure: Inhibition Assays Against rhHexB
Inhibition constant (Ki) values for compounds against Recombinant Human Hexosaminidase B (HexB) enzyme, purchased from R&D Systems (cat# 8907-GH-020) are determined by measuring the change in fluorescent signal corresponding to the rate of hydrolytic activity against the commercially available artificial substrate, 4-Methylumbelliferone N-acetyl-β-D-galactosaminide. HexB activity assays were performed in a buffer 100 mM MES at pH 5.5 and 5 nM [HexB]. Inhibition assays were in the presence or absence of various concentrations of inhibitors and at a fixed substrate concentration of 150 μM and 1% DMSO. First, inhibitor was serially diluted to the desired range of concentrations in 2% DMSO buffer. Next, 50 μL, of inhibitor solutions at various concentrations in 2% DMSO Buffer was added to 50 μL of 20 nM enzyme and allowed to incubate at 25° C. for 5 minutes. 100 μL, of 300 μM and 1% DMSO substrate was then added and reaction mixture was immediately mixed and aliquoted in 45 μL triplicates to a CORNING 384 well black plate. Fluorescence signal was measured continuously for 20 minutes at 25° C. in a BioTek Neo 2 Plate reader set at excitation and emission wavelengths of 355 and 450 nm, respectively. Max reaction rates for all inhibitor concentrations were calculated within Gen5 BioTek reader software. % Activity was subsequently calculated for each inhibitor concentration against the max reaction rate of uninhibited HexB. GraphPad Prism 2016 was used to approximate the Morrison Ki values for each inhibitor.

[2] = molecular target: β-N-acetylglucosaminidase (from bovine kidney); assay: Inhibition assay against commercial β-N-acetylglucosaminidase (bovine kidney), p-nitrophenyl N-acetyl-β-D-glucosaminide substrate; type: biochemical; conditions: pH 5.5, 37° C.; average of three determinations ± s.e.m.; NI = no inhibition detected at 200 μM; read-out: Bovine kidney Hex
Procedure: Inhibition Assays Against Commercial β-N-acetylglucosaminidases
Inhibition constant (Ki) values were determined by spectrophotometrically measuring the residual hydrolytic activities of the glycosidases against p-nitrophenyl N-acetyl-β-D-glucosaminide. […] Each assay was performed in phosphate-citrate buffer and the reactions were initiated by addition of the enzyme to a solution of the substrate in the absence or presence of various inhibitor concentrations. The mixture was incubated for 10-30 min at 37° C. and the reaction was quenched by addition of 1 M Na2CO3. Reaction times were appropriate to obtain 10-20% conversion of the substrate in order to achieve linear rates. The absorbance of the resulting mixture was determined at 405 nm. Approximate values of Ki were determined using a fixed concentration of substrate (around the Km value for the different glycosidases) and various inhibitor concentrations. Full Ki determinations and enzyme inhibition mode were determined from the slope of Lineweaver-Burk plots and double reciprocal analysis using a Microsoft Office Excel 2007 program.

Total hHex = assay: Inhibition of total hHex; type: biochemical, human; conditions: IC50 for total hHexA; NI = no inhibition detected at 200 μM
[3] = molecular target: T2, Recombinant Human Hexosaminidase A (HexA) (Homo sapiens, UniProt P06865); assay: Inhibition assay against rhHexA, 4-methylumbelliferone-N-acetyl-β-D-glucosaminide fluorescence; type: biochemical; conditions: IC50 for lysosomal hHexA; NI = no inhibition detected at 200 μM
T2 construct: purchased R&D Systems 6237-GH-020
T2 sequence (P06865 89-529): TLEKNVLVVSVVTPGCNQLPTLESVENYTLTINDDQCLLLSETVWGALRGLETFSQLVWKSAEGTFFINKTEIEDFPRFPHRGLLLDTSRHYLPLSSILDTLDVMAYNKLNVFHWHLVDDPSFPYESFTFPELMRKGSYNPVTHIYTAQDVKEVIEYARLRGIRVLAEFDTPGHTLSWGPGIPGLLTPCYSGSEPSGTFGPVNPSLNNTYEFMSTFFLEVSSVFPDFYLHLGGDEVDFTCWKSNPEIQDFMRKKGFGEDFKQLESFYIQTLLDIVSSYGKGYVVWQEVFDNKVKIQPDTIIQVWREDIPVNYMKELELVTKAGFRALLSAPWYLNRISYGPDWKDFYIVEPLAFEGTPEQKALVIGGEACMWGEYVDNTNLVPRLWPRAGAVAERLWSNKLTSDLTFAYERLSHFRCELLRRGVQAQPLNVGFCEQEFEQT
Procedure: Inhibition Assays Against rhHexA
Human Hexosaminidase A (HexA) enzyme, purchased from R&D Systems (cat# 6237-GH-020), were determined by measuring the fluorescent signal corresponding to the rate of hydrolytic activity against the commercially available artificial substrate, 4-Methylumbelliferone-N-acetyl-β-D-glucosaminide. HexA activity assays were performed in a buffer of 100 mM sodium citrate, 250 NaCl, pH 4.5 and 1.0 nM [HexA], then stopped after 20 minutes with a solution of 1.0 M Tris, pH 9.5 to enhance fluorescent signal. Preliminary experiments have shown that reaction rates are linear for 20 minutes after substrate addition, and that 1.0 M Tris at pH 9.5 is sufficient for stopping activity, as signal is stable after stopping. Inhibition assays were run in the presence or absence of various concentrations of inhibitors and at a fixed substrate concentration of 100 μM and 1% DMSO. First, inhibitor was serially diluted to the desired range of concentrations in 2% DMSO buffer. Next, 25 μL, of inhibitor solutions at various concentrations in 2% DMSO Buffer was added to 25 μL, of 4.0 nM enzyme and allowed to incubate at 25° C. for 5 minutes. 50 μL of 200 μM and 1% DMSO substrate was then added and allowed to react for 20 minutes. 100 μL of stop solution was added to reaction mixture, and immediately mixed and aliquoted in 45 μL triplicates to a CORNING 384 well black plate. Fluorescence signal was measured in a BioTek Neo 2 Plate reader set at excitation and emission wavelengths of 355 and 450 nm, respectively. % Activity was subsequently calculated for each inhibitor concentration against the fluorescence signal of uninhibited HexA. […]

CCC(=O)N[C@H]1CN2/C(=N/Cc3ccccc3)SC[C@@H]2[C@@H](O)[C@@H]1O [Compound 13, 2-Propanamido-5-N,6-S-(N′-benzyliminomethylidene)-1,2-dideoxy-6-thionojirimycin Hydrochloride]
> 200 µM: Ki [1] | Ki [2] | IC50 (Total hHex) | IC50 [3]

CCC(=O)N[C@H]1CN2/C(=N/Cc3cccc4ccccc34)SC[C@@H]2[C@@H](O)[C@@H]1O [Compound 14, 2-Propionamido-5-N,6-S-(N′-1-naphthylmethyliminomethylidene)-1,2-dideoxy-6-thionojirimycin hydrochloride]
> 200 µM: Ki [1] | Ki [2] | IC50 (Total hHex) | IC50 [3]

CCC(=O)N[C@H]1CN2/C(=N/Cc3ccc4[nH]ccc4c3)SC[C@@H]2[C@@H](O)[C@@H]1O [Compound 15, 2-Propionamido-5-N,6-S-(N′-5-indolylmethyliminomethylidene)-1,2-dideoxy-6-thionojirimycin hydrochloride]
> 200 µM: Ki [1] | Ki [2] | IC50 (Total hHex) | IC50 [3]

CC(C)C(=O)N[C@H]1CN2/C(=N/Cc3ccccc3)SC[C@@H]2[C@@H](O)[C@@H]1O [Compound 16, 2-Isobutanamido-5-N,6-S-(N′-benzyliminomethylidene)-1,2-dideoxy-6-thionojirimycin Hydrochloride]
> 200 µM: Ki [1] | Ki [2] | IC50 (Total hHex) | IC50 [3]

CCCC(=O)N[C@H]1CN2/C(=N/Cc3ccccc3)SC[C@@H]2[C@@H](O)[C@@H]1O [Compound 17, 2-Butanamido-5-N,6-S-(N′-benzyliminomethylidene)-1,2-dideoxy-6-thionojirimycin]
> 200 µM: Ki [1] | Ki [2] | IC50 (Total hHex) | IC50 [3]

CCNC(=S)N[C@H]1CN2/C(=N/Cc3ccccc3)SC[C@@H]2[C@@H](O)[C@@H]1O [Compound 18, 2-Ethylthioureido-5-N,6-S-(N′-benzyliminomethylidene)-1,2-dideoxy-6-thionojirimycin]
> 200 µM: Ki [1] | Ki [2] | IC50 (Total hHex) | IC50 [3]

CCCNC(=S)N[C@H]1CN2/C(=N/Cc3ccccc3)SC[C@@H]2[C@@H](O)[C@@H]1O [Compound 19, 2-Propylthioureido-5-N,6-S-(N′-benzyliminomethylidene)-1,2-dideoxy-6-thionojirimycin]
> 200 µM: Ki [1] | Ki [2] | IC50 (Total hHex) | IC50 [3]
